Source: PMC3827223, “Bioorthogonal Small Molecule Imaging Agents Allow Single-Cell Imaging of MET” (PLoS ONE, 2013)
One block for each compound: values may come before it.

How the values were obtained:
[1] = test system: MET phosphorylation (Y1234/1235) in OVCA429 cells; assay: Western blot of HGF-stimulated MET phosphorylation in OVCA429 cells; assay type: cell-based, human; details: for effect on MET phosphorylation: OVCA429 cells, 0.1, 0.5 or 1 μM pre-treatment 1 hr, 100 ng/ml HGF stimulation, Western blot densitometry
Description: Cells were serum-starved in media containing 0.1% fetal bovine serum ~16 hrs before the assay. […] Phosphorylation was then stimulated with 100 ng/ml HGF diluted in RPMI with 1 mg/ml BSA for 5 min at 37°C. Cell lysates were then prepared and run on a gel as described above. Western blot analysis was performed as described above using the MET and phospho-MET primary antibodies (1:1000). Total MET and phospho-MET expression was quantified using densitometry (ImageJ).

recombinant human MET = recombinant human MET (Homo sapiens, UniProt P08581); assay: z'-LYTE FRET kinase activity assay, MET
recombinant human MET, sequence (P08581 25-1390): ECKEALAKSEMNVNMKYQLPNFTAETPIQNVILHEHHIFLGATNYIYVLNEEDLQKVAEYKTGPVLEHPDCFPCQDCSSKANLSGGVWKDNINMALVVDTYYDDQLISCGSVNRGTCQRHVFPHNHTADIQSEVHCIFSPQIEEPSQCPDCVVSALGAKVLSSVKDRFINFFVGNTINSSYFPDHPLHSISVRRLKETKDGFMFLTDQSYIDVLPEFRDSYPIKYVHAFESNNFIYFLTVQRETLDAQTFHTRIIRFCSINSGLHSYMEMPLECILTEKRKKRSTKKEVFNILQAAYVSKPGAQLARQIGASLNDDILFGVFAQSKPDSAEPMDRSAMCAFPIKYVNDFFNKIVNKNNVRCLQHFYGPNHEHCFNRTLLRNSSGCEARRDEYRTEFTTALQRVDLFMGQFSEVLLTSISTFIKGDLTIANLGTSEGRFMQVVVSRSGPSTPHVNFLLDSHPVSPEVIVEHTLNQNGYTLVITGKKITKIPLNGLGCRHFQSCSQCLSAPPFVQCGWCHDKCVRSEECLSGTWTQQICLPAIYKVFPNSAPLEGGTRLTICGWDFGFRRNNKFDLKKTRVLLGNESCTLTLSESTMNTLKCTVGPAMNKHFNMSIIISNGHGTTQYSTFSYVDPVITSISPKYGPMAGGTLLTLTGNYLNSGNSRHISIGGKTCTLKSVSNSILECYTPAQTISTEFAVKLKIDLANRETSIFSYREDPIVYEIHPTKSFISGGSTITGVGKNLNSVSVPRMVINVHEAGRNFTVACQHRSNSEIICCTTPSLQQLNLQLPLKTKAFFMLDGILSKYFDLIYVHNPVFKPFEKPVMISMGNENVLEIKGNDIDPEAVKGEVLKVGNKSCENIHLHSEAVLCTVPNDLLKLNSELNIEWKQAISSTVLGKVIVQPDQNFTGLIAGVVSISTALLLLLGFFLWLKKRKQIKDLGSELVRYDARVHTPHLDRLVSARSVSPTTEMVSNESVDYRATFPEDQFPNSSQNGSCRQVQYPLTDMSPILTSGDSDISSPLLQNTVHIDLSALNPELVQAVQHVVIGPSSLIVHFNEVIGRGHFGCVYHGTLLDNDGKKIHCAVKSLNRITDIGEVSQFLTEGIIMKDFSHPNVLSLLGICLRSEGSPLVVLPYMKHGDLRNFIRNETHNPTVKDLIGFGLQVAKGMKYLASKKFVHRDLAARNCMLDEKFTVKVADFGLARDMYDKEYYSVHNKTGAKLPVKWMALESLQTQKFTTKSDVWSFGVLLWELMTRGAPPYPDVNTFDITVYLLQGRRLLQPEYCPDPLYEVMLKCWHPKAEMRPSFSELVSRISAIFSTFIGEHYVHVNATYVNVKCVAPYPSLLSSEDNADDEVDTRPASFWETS
Description: (§1) The Tyr6 peptide kit was used to measure MET, RON, and AXL activity. The Tyr4 peptide kit was used for PDGFRα and the Tyr1 peptide kit was used to measure KDR activity. All assays were run in accordance with the manufacturer’s instructions, with minor modification. Briefly, MET, RON, and KDR were used at 0.2 μg/ml, 0.8 μg/ml, and 0.7 μg/ml, respectively. The kinase reaction buffer for MET, RON, and KDR was supplemented with 0.67% DMSO. AXL was used at 1.5 μg/ml and the reaction buffer was supplemented with 0.01% sodium azide and 0.67% DMSO. PDGFRα was used at 2.5 μg/ml and the reaction buffer was supplemented with 1mM DTT, 2mM MnCl2, and 0.67% DMSO. Inhibitors were prepared by 4-fold serial dilution at 75X the final concentration in 100% DMSO (8 μM to 0.1 nM). This stock was then diluted to 3X the final concentration in kinase reaction buffer. 5 μl of the 3X stock was added to the final 15 μl reaction volume. Both the z´-LYTE control phosho-peptide and the z´-LYTE peptide were used at a final concentration of 2 μM. […] Development reagent was then incubated for 1 hour at room temperature. […] IC50 values were obtained by fitting the dose-response curves using Prism 6 (GraphPad).

recombinant human AXL = target: T1, recombinant human AXL (Homo sapiens, UniProt P30530); assay: z'-LYTE FRET kinase activity assay, AXL
T1 sequence (P30530 26-894): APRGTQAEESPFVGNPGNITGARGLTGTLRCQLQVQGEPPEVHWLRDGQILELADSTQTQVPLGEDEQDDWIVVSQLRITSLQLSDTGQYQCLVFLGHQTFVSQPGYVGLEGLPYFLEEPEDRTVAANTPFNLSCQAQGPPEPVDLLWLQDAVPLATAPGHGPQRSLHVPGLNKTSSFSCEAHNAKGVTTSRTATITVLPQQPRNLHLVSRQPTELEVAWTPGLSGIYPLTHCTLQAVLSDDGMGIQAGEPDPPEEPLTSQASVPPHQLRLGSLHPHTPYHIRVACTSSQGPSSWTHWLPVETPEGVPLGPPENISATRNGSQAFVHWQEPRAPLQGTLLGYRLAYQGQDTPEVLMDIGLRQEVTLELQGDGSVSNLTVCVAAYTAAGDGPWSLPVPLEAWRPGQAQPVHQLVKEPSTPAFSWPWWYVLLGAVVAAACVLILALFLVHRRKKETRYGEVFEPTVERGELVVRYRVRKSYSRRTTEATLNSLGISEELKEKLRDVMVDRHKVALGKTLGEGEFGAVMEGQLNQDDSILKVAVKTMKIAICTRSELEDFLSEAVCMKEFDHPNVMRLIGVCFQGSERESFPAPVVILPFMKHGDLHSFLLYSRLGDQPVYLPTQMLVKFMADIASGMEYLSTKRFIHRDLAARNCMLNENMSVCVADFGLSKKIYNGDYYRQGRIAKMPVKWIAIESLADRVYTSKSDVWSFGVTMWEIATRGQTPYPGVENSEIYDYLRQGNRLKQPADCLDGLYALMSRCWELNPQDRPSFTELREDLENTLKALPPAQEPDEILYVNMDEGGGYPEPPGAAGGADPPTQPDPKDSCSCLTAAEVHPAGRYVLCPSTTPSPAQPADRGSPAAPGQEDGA
Description: as §1

recombinant Human RON = recombinant Human RON (Homo sapiens, UniProt Q04912); assay: z'-LYTE FRET kinase activity assay, RON
recombinant Human RON, sequence (Q04912 25-1400): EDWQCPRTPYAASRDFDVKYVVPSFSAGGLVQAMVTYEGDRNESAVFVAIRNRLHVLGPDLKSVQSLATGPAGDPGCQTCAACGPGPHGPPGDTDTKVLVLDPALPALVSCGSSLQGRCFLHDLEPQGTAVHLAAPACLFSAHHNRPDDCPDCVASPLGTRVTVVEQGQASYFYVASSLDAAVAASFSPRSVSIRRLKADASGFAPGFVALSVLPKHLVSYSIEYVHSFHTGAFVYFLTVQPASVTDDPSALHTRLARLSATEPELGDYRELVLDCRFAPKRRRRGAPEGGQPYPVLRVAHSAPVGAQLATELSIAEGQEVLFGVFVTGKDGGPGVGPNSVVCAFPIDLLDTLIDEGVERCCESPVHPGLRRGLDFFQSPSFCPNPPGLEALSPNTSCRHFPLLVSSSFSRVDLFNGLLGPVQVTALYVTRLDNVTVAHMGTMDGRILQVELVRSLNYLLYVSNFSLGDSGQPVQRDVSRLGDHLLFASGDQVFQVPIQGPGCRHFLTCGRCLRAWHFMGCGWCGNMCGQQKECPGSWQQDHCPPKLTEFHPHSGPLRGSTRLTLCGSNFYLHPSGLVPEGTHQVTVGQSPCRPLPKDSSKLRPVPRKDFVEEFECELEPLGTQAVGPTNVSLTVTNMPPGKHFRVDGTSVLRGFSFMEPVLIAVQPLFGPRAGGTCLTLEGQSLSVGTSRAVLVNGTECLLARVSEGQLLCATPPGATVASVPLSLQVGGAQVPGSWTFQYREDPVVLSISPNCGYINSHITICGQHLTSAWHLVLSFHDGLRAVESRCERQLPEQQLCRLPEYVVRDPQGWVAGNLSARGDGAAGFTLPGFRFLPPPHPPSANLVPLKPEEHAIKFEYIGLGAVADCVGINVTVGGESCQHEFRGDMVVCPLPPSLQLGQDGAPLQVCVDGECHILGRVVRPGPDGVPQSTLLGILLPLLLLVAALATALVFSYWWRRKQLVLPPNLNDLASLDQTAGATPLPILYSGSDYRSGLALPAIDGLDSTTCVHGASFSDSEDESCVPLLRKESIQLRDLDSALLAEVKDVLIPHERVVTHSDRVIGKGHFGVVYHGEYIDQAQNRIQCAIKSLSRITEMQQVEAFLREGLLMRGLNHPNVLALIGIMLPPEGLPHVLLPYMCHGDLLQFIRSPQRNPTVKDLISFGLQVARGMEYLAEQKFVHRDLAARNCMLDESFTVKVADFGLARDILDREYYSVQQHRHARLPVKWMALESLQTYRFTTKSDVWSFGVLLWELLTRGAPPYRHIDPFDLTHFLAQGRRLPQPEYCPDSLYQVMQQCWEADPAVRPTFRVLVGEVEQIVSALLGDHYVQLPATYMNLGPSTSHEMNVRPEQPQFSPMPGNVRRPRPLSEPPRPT
Description: as §1

recombinant Human KDR = recombinant Human KDR (Homo sapiens, UniProt P35968); assay: z'-LYTE FRET kinase activity assay, KDR
recombinant Human KDR, sequence (P35968 20-1356): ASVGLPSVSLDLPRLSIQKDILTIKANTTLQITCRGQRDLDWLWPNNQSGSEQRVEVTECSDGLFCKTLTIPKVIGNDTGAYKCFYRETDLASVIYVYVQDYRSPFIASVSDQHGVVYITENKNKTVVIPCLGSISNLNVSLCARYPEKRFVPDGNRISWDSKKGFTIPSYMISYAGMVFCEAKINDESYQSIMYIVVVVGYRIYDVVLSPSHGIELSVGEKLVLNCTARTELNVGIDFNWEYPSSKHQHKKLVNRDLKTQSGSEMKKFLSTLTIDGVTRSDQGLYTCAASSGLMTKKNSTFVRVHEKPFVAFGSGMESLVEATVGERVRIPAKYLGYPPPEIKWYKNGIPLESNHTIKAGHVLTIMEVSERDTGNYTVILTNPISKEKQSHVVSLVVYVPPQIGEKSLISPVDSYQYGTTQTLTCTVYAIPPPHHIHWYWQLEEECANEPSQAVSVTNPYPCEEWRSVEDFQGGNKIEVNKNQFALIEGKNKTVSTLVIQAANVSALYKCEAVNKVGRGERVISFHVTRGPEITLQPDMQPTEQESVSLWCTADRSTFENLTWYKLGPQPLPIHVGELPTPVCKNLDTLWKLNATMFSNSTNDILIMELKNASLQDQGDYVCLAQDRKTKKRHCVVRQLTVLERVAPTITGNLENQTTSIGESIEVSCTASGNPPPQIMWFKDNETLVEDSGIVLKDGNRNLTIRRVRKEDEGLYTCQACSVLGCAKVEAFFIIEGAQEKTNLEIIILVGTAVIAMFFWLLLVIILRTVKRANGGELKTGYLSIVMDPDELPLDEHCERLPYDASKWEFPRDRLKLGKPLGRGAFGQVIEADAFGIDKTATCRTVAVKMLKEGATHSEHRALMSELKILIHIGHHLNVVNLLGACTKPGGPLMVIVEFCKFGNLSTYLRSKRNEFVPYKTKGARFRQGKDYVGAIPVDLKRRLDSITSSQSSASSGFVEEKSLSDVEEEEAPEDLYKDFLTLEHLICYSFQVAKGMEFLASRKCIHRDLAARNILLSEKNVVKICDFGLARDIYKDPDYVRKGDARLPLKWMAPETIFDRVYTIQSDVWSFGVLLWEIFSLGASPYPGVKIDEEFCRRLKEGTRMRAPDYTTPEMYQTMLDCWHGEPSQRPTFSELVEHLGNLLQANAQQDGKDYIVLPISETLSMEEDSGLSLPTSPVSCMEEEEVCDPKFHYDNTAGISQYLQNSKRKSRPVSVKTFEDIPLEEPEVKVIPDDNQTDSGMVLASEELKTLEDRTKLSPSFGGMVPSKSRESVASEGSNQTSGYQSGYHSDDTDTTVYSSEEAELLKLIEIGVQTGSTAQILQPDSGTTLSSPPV
Description: as §1

recombinant Human PDGFRα = recombinant Human PDGFRα (Homo sapiens, UniProt P16234); assay: z'-LYTE FRET kinase activity assay, PDGFRα
recombinant Human PDGFRα, sequence (P16234 24-1089): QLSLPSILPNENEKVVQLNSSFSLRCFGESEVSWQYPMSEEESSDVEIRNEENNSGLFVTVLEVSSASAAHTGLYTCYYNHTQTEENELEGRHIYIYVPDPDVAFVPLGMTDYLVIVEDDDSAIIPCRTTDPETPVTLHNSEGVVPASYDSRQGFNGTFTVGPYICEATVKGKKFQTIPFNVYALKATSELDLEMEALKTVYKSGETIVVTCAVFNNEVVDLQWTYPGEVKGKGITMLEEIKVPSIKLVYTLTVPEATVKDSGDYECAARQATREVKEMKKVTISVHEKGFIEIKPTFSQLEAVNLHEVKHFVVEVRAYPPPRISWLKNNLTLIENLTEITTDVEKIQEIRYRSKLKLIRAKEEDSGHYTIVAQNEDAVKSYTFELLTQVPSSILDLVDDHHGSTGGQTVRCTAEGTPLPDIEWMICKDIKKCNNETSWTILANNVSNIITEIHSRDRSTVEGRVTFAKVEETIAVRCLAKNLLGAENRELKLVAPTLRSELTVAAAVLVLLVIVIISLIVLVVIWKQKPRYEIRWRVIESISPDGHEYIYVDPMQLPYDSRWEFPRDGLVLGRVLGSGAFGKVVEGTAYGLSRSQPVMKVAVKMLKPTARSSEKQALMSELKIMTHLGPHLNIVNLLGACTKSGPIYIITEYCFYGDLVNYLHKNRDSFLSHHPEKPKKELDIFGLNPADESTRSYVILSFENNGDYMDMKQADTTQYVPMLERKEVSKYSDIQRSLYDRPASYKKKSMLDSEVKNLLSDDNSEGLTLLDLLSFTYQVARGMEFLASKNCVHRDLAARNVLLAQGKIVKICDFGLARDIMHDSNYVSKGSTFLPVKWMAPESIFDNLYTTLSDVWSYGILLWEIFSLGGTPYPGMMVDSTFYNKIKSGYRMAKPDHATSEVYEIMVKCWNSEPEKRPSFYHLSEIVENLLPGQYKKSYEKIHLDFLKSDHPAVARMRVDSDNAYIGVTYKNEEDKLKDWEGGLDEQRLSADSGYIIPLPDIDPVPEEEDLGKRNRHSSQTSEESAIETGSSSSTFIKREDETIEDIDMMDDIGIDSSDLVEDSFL
Description: as §1

[2] = Foretinib-TCO (11) IC50 value divided by Foretinib IC50 value

IC50 (recombinant human MET): 697 nM | change of MET IC50 relative to Foretinib (loss in drug activity) (recombinant human MET; from 28.7 nM to 697.4 nM): over 24 fold
Structure (SMILES): COc1cc2c(Oc3ccc(NC(=O)C4(C(=O)Nc5ccc(F)cc5)CC4)cc3F)ccnc2cc1OCCCN1CCN(C(=O)CCc2ccc3n2[B-](F)(F)[N+]2=C(C)C=C(C)C2=C3)CC1 [Foretinib-BODIPY-FL, 5,5-difluoro-7-(3-(4-(3-((4-(2-fluoro-4-(1-((4-fluorophenyl)carbamoyl)cyclopropanecarboxamido)phenoxy)-6-methoxyquinolin-7-yl)oxy)propyl)piperazin-1-yl)-3-oxopropyl)-1,3-dimethyl-5H-dipyrrolo[1,2-c:2',1'-f][1,3,2]diazaborinin-4-ium-5-uide]
effect on MET phosphorylation [1]: decrease in MET phosphorylation

Structure (SMILES): COc1cc2c(Oc3ccc(NC(=O)C4(C(=O)Nc5ccc(F)cc5)CC4)cc3F)ccnc2cc1OCCCN1CCOCC1 [Foretinib, N1’-[3-fluoro-4-[[6-methoxy-7-(3-morpholinopropoxy)-4-quinolinyl]oxy]phenyl]-N1-(4-fluorophenyl)cyclopropane-1,1-dicarboxamide, reference compound]
effect on MET phosphorylation [1]: complete decrease in MET phosphorylation

IC50 (recombinant human MET): 88.6 nM | Fold Change (TCO/Foretinib) MET (recombinant human MET; [2]): 3.1 | IC50 (recombinant human AXL): 72.5 nM | Fold Change (TCO/Foretinib) AXL (recombinant human AXL; [2]): 3.4 | IC50 (recombinant Human RON): 82.7 nM | Fold Change (TCO/Foretinib) RON (recombinant Human RON; [2]): 4.1 | IC50 (recombinant Human KDR): 150 nM | Fold Change (TCO/Foretinib) KDR (recombinant Human KDR; [2]): 6.2 | IC50 (recombinant Human PDGFRα): 265 nM | Fold Change (TCO/Foretinib) PDGFRα (recombinant Human PDGFRα; [2]): 4.5
Structure (SMILES): COc1cc2c(Oc3ccc(NC(=O)C4(C(=O)Nc5ccc(F)cc5)CC4)cc3F)ccnc2cc1OCCCN1CCN(C(=O)OC2CC/C=C/CCC2)CC1 (centres unmarked) [Foretinib-TCO, (E)-cyclooct-4-en-1-yl 4-(3-((4-(2-fluoro-4-(1-((4-fluorophenyl)carbamoyl)cyclopropanecarboxamido)phenoxy)-6-methoxyquinolin-7-yl)oxy)propyl)piperazine-1-carboxylate]
effect on MET phosphorylation [1]: decrease in MET phosphorylation | potency in decreasing MET phosphorylation compared with the BODIPY-FL (12) version ([1]; OVCA429 cells, 0.1-1 μM, HGF stimulation, Western blot): greater potency

IC50 (recombinant human MET): 1.48 nM
Structure (SMILES): O=C(NCCn1cc(-c2cnc3nnn(Cc4ccc5ncccc5c4)c3n2)cn1)OC1CC/C=C/CCC1 (centres unmarked) [PF04217903-TCO, (E)-cyclooct-4-en-1-yl (2-(4-(1-(quinolin-6-ylmethyl)-1H-[1,2,3]triazolo[4,5-b]pyrazin-6-yl)-1H-pyrazol-1-yl)ethyl)carbamate]
